According to paper PMC4822888, “Subtype-Selective Small Molecule Inhibitors Reveal a Fundamental Role for Nav1.7 in Nociceptor Electrogenesis, Axonal Conduction and Presynaptic Release” (PLoS ONE, 2016):
Read-outs that look alike come from different tables or passages of the source.

What was measured:
[1] = system: small diameter mouse DRG neurons; type: cell-based
[2] = system: substantia gelatinosa (SG) neurons of the superficial dorsal horn
[3] = target: mouse Nav1.1 (Mus musculus, UniProt A2APX8); type: cell-based; conditions: recombinant mouse Nav1.1
[4] = system: small diameter mouse DRG neurons; experiment: Current clamp of action potentials in small diameter mDRG neurons; type: cell-based
Experimental: Dorsal root ganglia (DRG) were isolated and dissociated according to a previously published method. Briefly, DRGs were obtained from all spinal locations and dissociated neurons plated on glass coverslips pre-coated with poly-D-lysine/laminin (BD Biosciences) and left to adhere for 1.5–2 hrs before flooding. Growth media consisted of Lebovitz L-15 Glutamax (Life Technologies) supplemented with 10% FCS, 24 mM NaHCO3 and 38 mM glucose.
Electrophysiological recordings were obtained from stably transfected HEK 293 cells, acutely dissociated mouse DRG neurons, cultured human DRG neurons or mouse superficial dorsal horn neurons using either an Axopatch 200B or […] amplifier (Molecular Devices), or EPC-10 USB amplifier (HEKA). Small diameter mouse DRG neurons were identified as those with a whole cell capacitance between 10–25 pF [17]. For human DRG neurons, patch clamp recordings were obtained from small-to-medium diameter neurons (<60 μm), the majority of which have previously been classified as nociceptors.
ECS contained (in mM) 135 NaCl, 4.7 KCl, 1 CaCl2, 1 MgCl2, 10 HEPES and 10 glucose (300–310 mOsm, pH 7.4 with NaOH). ICS contained (in mM) 140 KCl, 0.5 EGTA, 5 HEPES, and 3 Mg-ATP, (pH 7.3 with KOH, 300–305 mOsm). Single action potentials were evoked from Vm -70 mV by a 20 ms suprathreshold current step (0.1 Hz).

[5] = system: substantia gelatinosa (SG) neurons; experiment: Current clamp action potentials in SG neurons of mouse spinal cord slices; type: cell-based; conditions: 30 nM
[6] = system: synaptosomes prepared from L4/L5 spinal cord sections; parameters: species or system mouse
Experimental: A lumbosacral laminectomy was performed and a segment of lumbar spinal cord was removed into a petri dish containing ice-cold pre-oxygenated aCSF. The dura mater, ventral and dorsal roots and the pia-arachnoid membrane were removed. A small segment of the spinal cord containing only the lumbar region (L4–L5) was dissected free, weighed and placed into ice-cold homogenization buffer composition (mM) 0.32 M sucrose, 10 mM HEPES (pH 7.4, bubbled with 100% O2). Spinal cord tissue was homogenized in buffer using 20 strokes of a glass/glass hand homogenizer. The crude homogenate was diluted with 3 mL of ice-cold homogenization buffer and centrifuged at 1000 x g for 5 mins at 4°C. Synaptosomes were isolated from the supernatant by an additional centrifugation at 20,000 x g for 2 mins at 4°C. The synaptosomal pellet was resuspended in 3 mL of Krebs buffer with composition (in mM): NaCl 118, KCl 2.4, CaCl2 2.4, MgSO4 1.2, KH2PO4 1.2, NaHCO3 25, glucose 10, pH 7.4 (bubbled with 95% O2 and 5% CO2). Protein quantification was performed on the synaptosomal solution using the Bradford colorimetric protein assay and bovine serum albumin standards. Samples were diluted to obtain a final concentration of 0.1 mg mL^-1 for CGRP evaluation and 100 μL samples of the synaptosomal solution was pipetted into eppendorfs. Synaptosomes were incubated at 37°C for 10 mins in the presence of test compounds or DMSO (1 μl total volume). Synaptosomes were stimulated using Veratridine 10 μM in the presence of Thiorphan (10 μM) and incubated for a further 10 mins at 37°C. Samples were then filtered using […] filters and 100 μl of the filtrate was transferred to CGRP ELISA plate (Bertin Pharma) and assayed according to the manufactures instructions.

[7] = system: WT mice; experiment: Capsaicin flare response in WT mice; type: in vivo, mouse; conditions: 55 mins, vehicle 4930 ± 751
[8] = system: mDRG neurons; experiment: Action potential voltage clamp in mDRG neurons; type: cell-based, mouse; conditions: 30 nM, p < 0.05
Experimental: Recordings were performed as described in Blair & Bean (2002). Briefly, the internal solution contained (in mM): 140 K-Mes, 13.5 NaCl, 1.6 MgCl2, 0.09 EGTA, 9 HEPES, 0.9 glucose, 14 Tris-creatine PO4, 4 Mg-ATP, and 0.3 Tris-GTP (285–300 mOsm, pH 7.2 with KOH). The ECS was identical to that used for current clamp recordings (see above). Action potentials were recorded in current clamp mode following a 20 ms current injection from a Vm of -70 mV. The same cell was then examined under voltage-clamp (-70 mV) whereby the recorded action potential was used as the voltage command. Series resistance was compensated for by up to 80%.

[9] = target: mouse Nav1.7 (Mus musculus, UniProt Q62205); type: cell-based
Chain of mouse Nav1.7 (Q62205 whole entry): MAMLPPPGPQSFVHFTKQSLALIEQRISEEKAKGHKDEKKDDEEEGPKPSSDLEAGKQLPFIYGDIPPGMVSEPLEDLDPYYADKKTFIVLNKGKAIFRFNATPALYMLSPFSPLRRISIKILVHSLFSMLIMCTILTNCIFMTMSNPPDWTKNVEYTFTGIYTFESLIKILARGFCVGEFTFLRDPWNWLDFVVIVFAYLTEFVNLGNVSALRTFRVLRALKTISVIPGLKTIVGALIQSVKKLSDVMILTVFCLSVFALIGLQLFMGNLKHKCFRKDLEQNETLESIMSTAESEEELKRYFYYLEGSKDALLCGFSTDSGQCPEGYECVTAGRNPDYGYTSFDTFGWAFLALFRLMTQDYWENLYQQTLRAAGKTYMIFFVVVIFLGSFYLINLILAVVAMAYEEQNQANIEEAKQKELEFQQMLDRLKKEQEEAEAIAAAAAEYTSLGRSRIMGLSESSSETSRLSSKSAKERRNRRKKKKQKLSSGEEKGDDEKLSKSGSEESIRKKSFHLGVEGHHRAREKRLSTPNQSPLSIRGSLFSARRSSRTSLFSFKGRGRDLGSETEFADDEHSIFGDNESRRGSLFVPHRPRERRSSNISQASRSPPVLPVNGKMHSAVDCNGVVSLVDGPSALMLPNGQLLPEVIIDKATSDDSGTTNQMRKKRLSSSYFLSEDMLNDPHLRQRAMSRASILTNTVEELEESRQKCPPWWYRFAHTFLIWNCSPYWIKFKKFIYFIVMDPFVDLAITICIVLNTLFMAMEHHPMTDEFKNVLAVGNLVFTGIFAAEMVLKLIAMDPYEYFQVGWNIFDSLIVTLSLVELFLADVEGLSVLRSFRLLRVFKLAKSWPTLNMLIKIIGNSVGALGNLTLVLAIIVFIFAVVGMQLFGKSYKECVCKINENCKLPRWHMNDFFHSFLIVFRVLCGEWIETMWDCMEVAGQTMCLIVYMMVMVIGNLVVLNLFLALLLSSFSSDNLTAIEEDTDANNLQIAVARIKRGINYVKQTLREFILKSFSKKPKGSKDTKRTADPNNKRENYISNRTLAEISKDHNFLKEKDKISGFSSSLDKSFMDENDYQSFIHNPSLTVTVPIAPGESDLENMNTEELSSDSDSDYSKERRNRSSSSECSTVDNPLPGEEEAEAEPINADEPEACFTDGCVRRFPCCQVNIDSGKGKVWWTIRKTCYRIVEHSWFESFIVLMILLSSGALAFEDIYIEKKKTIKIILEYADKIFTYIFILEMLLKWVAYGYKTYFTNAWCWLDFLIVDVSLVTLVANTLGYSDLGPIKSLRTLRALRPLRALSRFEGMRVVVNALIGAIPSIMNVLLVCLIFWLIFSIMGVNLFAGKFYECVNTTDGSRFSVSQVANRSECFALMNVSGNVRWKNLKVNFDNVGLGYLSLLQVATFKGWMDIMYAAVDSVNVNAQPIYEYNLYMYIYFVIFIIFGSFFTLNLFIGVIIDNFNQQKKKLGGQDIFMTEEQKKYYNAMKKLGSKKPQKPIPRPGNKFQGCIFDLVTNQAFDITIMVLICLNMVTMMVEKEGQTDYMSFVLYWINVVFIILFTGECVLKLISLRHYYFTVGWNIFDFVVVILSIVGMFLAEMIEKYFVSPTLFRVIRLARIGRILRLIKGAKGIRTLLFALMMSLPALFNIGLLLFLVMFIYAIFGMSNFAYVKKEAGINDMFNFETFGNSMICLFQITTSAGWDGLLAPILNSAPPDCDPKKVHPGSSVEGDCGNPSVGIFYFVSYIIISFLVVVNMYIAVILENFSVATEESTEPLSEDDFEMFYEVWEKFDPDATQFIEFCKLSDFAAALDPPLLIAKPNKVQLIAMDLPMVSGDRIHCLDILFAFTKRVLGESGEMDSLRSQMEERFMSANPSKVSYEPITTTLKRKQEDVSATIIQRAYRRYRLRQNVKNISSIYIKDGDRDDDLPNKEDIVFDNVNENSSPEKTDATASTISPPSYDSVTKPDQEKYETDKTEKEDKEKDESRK

[10] = system: substantia gelatinosa (SG) neurons of the superficial dorsal horn; experiment: cells; conditions: Mus musculus, Neuron

COc1cc(NC(=O)c2ccc(-c3ccc(Cl)cc3)o2)cc(OC)c1 [A-803467]
Block of total Na+ current ([1]; 1 μM, small diameter mDRG neurons): 34.1 ± 3.0%

NS(=O)(=O)c1cccc2c1c([N+](=O)[O-])cc1nc(O)c(O)nc12 [NBQX]
Effect on Aδ and C fiber EPSCs ([2]; 5 μM, data not shown): completely abolished

Nc1n[nH]cc1-c1cc(C(F)(F)F)ccc1Oc1cc(F)c(S(=O)(=O)Nc2cscn2)cc1Cl [PF-05198007, 4-(2-(3-amino-1H-pyrazol-4-yl)-4-(trifluoromethyl)phenoxy)-5-chloro-2-fluoro-N-(thiazol-4-yl)benzenesulfonamide]
Slope [3]: 0.7
Latency of the C-fiber mediated EPSC ([2]; 30 nM applied to the dorsal root only, p < 0.05): delay in the latency
Neurons with action potential failure (complete block) ([4]; 30 nM, cells blocked/cells tested): 6/13
Spike amplitude ([4]; control 43.0 ± 3.3 mV): 37.7 ± 3.9 mV
Upstroke slope ([4]; control 137 ± 19 mV/ms): 86 ± 11 mV/ms
Action potential threshold ([4]; control -27.8 ± 2.0 mV): -22.8 ± 1.6 mV
Action potential rheobase ([4]; in presence of compound, control 173 ± 37 pA): 239 ± 47 pA
Action potential rheobase after washout ([4]; wash, control 173 ± 37 pA): 176 ± 35 pA
Block of total TTX-S current ([1]; 30 nM, in presence of A-803467): 83.0 ± 2.7%
Effect on action potentials evoked by injection of depolarizing current [5]: no effects
Neurons with dorsal root evoked action potentials abolished [5]: 8 out of 9
Veratridine evoked CGRP release ([6]; 30 nM, p < 0.05): significantly reduced
Veratridine evoked CGRP release ([6]; 100 nM, p < 0.05): significantly reduced
Capsaicin flare response, AUC ([7]; 1 mg/kg oral): 1967 ± 472
Capsaicin flare response, AUC ([7]; 10 mg/kg oral): 2265 ± 382
Latency of inward current [8]: increased latency
Peak amplitude of inward current [8]: decrease in the peak amplitude
Slope [9]: 1.1
inhibition at 0.03 µM ([10]; read-out: Inhibition of Aδ-fiber evoked EPSC amplitude): 46.9 ± 5.4%
inhibition at 0.03 µM ([10]; read-out: Inhibition of C-fiber evoked EPSC amplitude): 53.7 ± 10.1%
inhibition at 0.03 µM ([10]; read-out: Inhibition of C-fiber evoked EPSCs): 87 ± 9%

NC1=N[C@H](O)[C@H]2[C@H]3O[C@]4(O)O[C@@H]([C@@H](O)[C@@]2(N1)[C@@H]4O)[C@]3(O)CO [TTX, tetrodotoxin]
Effect on Aδ and C fiber EPSCs [2]: completely abolished
Effect on current remaining after A-803467 [1]: abolished

Cc1cccc(C)c1OCC(C)N (centres unmarked) [mexiletine, reference compound]
Veratridine evoked CGRP release [6]: significantly reduced
